Here are results for 17 compounds from US6057311A, “Benzodiazonine derivatives binding to cholecystokinin or gastrin receptors” (James Black Foundation Limited, priority 1996, dated 2000).

In one test the target is T1, CCKB receptor (Mus musculus, UniProt P56481).
T1 construct: The cortex was dissected, weighed and homogenised in 40 ml ice-cold buffer; tissue Charles River (animals); host or cells: cerebral cortex of male CD1 mice, membranes
T1 sequence (P56481 1-453): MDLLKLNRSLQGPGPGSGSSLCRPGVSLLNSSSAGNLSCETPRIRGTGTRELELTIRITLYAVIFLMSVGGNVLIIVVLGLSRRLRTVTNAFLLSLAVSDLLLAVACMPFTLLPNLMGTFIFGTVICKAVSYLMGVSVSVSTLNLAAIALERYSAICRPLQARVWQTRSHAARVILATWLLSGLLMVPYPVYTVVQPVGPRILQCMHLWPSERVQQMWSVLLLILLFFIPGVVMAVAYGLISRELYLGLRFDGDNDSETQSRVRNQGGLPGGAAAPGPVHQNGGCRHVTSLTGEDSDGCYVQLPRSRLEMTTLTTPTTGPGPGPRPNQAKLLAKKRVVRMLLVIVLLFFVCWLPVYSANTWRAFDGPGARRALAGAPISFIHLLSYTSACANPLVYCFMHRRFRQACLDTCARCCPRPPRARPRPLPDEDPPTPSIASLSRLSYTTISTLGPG
The experiment in a line: radioligand binding assay at the CCKB receptor in mouse cortical membranes ([125I]-CCK8S). The settings on record: [125I]-CCK8S 200 pM, 150 min at 21±3° C.; for Ki: pH 7.2, read-out: pKi (Mouse cortex) (converted); for pKi (Mouse cortex): pH 7.2. The gist of the method:
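Male CD1 mouse cortical membranes (2 mg/ml original wet weight) were incubated 150 min at 21±3 °C in HEPES buffer pH 7.2 (130 mM NaCl, 4.7 mM KCl, 5 mM MgCl2, 1 mM EDTA, bacitracin) with [125I]-CCK8S and competitor. Non-specific binding was defined with L-365,260; bound label was measured by GF/B filtration and gamma counting.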

The next test concerns the target T2, CCKA (Cavia porcellus, UniProt Q63931).
T2 construct: The pancreatata were removed from male guinea-pigs; from tissue; host or cells: pancreas of male Dunkin Hartley guinea pigs, membranes
T2 sequence (Q63931 1-430): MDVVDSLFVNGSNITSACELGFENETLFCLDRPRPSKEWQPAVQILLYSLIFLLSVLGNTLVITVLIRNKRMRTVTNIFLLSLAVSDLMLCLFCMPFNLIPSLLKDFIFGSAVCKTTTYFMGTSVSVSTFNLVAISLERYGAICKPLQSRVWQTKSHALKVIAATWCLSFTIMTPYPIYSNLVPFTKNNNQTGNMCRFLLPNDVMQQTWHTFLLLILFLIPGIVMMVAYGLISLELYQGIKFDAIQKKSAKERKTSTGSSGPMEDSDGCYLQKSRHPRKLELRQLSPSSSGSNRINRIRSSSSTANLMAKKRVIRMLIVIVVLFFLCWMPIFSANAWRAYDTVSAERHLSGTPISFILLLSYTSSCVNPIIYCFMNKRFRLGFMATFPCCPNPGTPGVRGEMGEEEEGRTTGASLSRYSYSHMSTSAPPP
The experiment in a line: CCKA binding assay, guinea pig pancreas membranes ([125I]-CCK8(S)). To be noted: [125I]-CCK8(S) 200 pM, 0.375 μM PD134,308, 150 min at 21±3° C.; for Ki: pH 7.2, read-out: pKi (Guinea pig pancreas) (converted); for pKi (Guinea pig pancreas): pH 7.2. The procedure: The compounds of the examples were also tested in a CCKA binding assay as follows:
The pancreatata were removed from male guinea-pigs (200-300 g; Dunkin Hartley) and placed in ice-cold HEPES buffer (pH 7.2@21±3° C.). The pancreatata were homogenised in 40 ml ice-cold HEPES buffer using a polytron (Brinkmann, PT10, setting 10) 4×1 second. The homogenate was centrifuged at 39,800 g for 15 min at 4° C. The supernatant was discarded and the pellet re-suspended using a Teflon-in-glass homogeniser in 20 volumes of fresh buffer and re-centrifuged as above. The final pellet was re-suspended using a Teflon-in-glass homogeniser to a tissue concentration of 1 mg.ml^-1 (original wet weight), and filtered through 500 μm pore-size Nytex mesh.
The membranes (400 μl; containing 0.375 μM PD134,308) were incubated for 150 minutes at 21±3° C. in a final volume of 0.5 ml with HEPES buffer containing [^125 I]-CCK8 (S) (50 μl; 200 pM) and competing compound. Total and non-specific binding of [^125 I]-CCK8 (S) were defined using 50 μl of buffer and 50 μl of 100 nM L-364,718 respectively. The assay was terminated by rapid filtration through pre-soaked Whatman GF/B filters using a Brandell Cell Harvester. The filters were washed (3×3 ml) with ice-cold 50 mM Tris HCl (pH 7.4 at 4° C.) and bound radioactivity was determined by counting (1 min) in a gamma counter.

`O=C1C[C@@H](C(=O)O)N(C(=O)OCc2ccccc2)[C@H](CC23CC4CC(CC(C4)C2)C3)C(=O)N(Cc2ccccc2)c2ccccc21` [Example 20, (3R,5S)-3-(1-adamantyl)methyl-1-benzyl-4-benzyloxycarbonyl-2,7dioxo-2,3,4,5,6,7-hexahydro-1H-1,4-benzodiazonine-5-carboxylate]: the Ki at CCKB receptor is 3.16 µM; on CCKA it was 3.98 µM.

For `CC(=O)N1[C@H](CC23CC4CC(CC(C4)C2)C3)C(=O)N(C)c2ccccc2C(=O)C[C@H]1C(=O)O` [Example 21, (3R,5S)-4-acetyl-3-(1-adamantyl)methyl-1-methyl-2,7-dioxo-2;3,4,5,6,7-hexahydro-1H-1,4-benzodiazonine-5-carboxylate], the Ki on CCKB receptor was 7.94 µM; at CCKA it was 6.31 µM.

On to `CC(=O)N1[C@H](CC23CC4CC(CC(C4)C2)C3)C(=O)N(Cc2ccccc2)c2ccccc2C(=O)C[C@H]1C(=O)NCC(=O)O` [Example 22, (3R,5S)-4-acetyl-3-(1-adamantyl)methyl-1-benzyl-5-carboxymethylaminocarbonyl-2,7-dioxo-2,3,4,5,6,7-hexahydro-1H-1,4-benzodiazonine], for which the Ki on CCKB receptor is 0.2 µM; on CCKA, 10 µM.

Turning to `CC(=O)N1[C@H](CC23CC4CC(CC(C4)C2)C3)C(=O)N(Cc2ccccc2)c2ccccc2C(=O)C[C@H]1C(=O)NCCC(=O)O` [Example 23, (3R,5S)-4-acetyl-3-(1-adamantyl)methyl-1-benzyl-5-(2-carboxy)ethylaminocarbonyl-2,7-dioxo-2,3,4,5,6,7-hexahydro-1H-1,4-benzodiazonine], the Ki on CCKB receptor is 1 µM; on CCKA, 10 µM.

Consider `CC(=O)N1[C@H](CC23CC4CC(CC(C4)C2)C3)C(=O)N(Cc2ccccc2)c2ccccc2C(=O)C[C@H]1C(=O)N[C@@H](C)C(=O)O` [Example 24, (3R,5S)-4-acetyl-3-(1-adamantyl)methyl-1-benzyl-5-[(1S)-carboxy]ethylaminocarbonyl-2,7-dioxo-2,3,4,5,6,7-hexahydro-1H-1,4-benzodiazonine], for which the “pKi (Mouse cortex)” value at CCKB receptor was determined as 6.9. The “pKi (Guinea pig pancreas)” value on CCKA is listed as 5.0.

Take `CC(=O)N1[C@H](CC23CC4CC(CC(C4)C2)C3)C(=O)N(Cc2ccccc2)c2ccccc2C(=O)C[C@H]1C(=O)N[C@H](C)C(=O)O` [Example 25, (3R,5S)-4-acetyl-3-(1-adamantyl)methyl-1-benzyl-5-[(1R)-carboxy]ethylaminocarbonyl-2,7-dioxo-2,3,4,5,6,7-hexahydro-1H-1,4-benzodiazonine]: the Ki is 0.398 µM on CCKB receptor and 6.31 µM at CCKA.

As for `CC(=O)N1[C@H](CC23CC4CC(CC(C4)C2)C3)C(=O)N(Cc2ccccc2)c2ccccc2C(=O)C[C@H]1C(=O)NC(C)(C)C(=O)O` [Example 26, (3R,5S)-4-acetyl-3-(1-adamantyl)methyl-1-benzyl-5-(1-carboxy-1-methyl)ethylaminocarbonyl-2,7-dioxo-2,3,4,5,6,7-hexahydro-1H-1,4-benzodiazonine], the Ki at CCKB receptor is 1 µM; at CCKA, 6.31 µM.

With `COc1ccc(CN2C(=O)[C@@H](CC34CC5CC(CC(C5)C3)C4)N(C(C)=O)[C@H](C(=O)Nc3cc(C(=O)O)cc(C(=O)O)c3)CC(=O)c3ccccc32)cc1` [Example 31], the Ki at CCKB receptor is 1.58 µM; at CCKA, 6.31 µM.

In the case of `CC(=O)N1[C@H](CC23CC4CC(CC(C4)C2)C3)C(=O)N(C)c2ccccc2C(=O)C[C@H]1C(=O)NCC(=O)O` [Example 32, (3R,5S)-4-acetyl-3-(1-adamantyl)methyl-5-carboxymethylaminocarbonyl-1-methyl-2,7-dioxo-2,3,4,5,6,7-hexahydro-1H-1,4-benzodiazonine], the Ki is 5.01 µM at CCKB receptor and 10 µM on CCKA.

Regarding `CC(=O)N1[C@@H](C(=O)NCC(=O)O)CC(=O)c2ccccc2N(Cc2ccccc2)C(=O)[C@@H]1CC12CC3CC(CC(C3)C1)C2` [Example 36, (3S,5R)-4-acetyl-3-(1-adamantyl)methyl-1-benzyl-5-carboxymethylaminocarbonyl-2,7-dioxo-2,3,4,5,6,7-hexahydro-1H-1,4-benzodiazonine], the Ki at CCKB receptor was 3.16 µM; on CCKA, 5.01 µM.

As to `COC(=O)CNC(=O)[C@@H]1CC(=O)c2ccccc2N(Cc2ccccc2)C(=O)[C@@H](CC23CC4CC(CC(C4)C2)C3)N1C(C)=O` [Example 37, (3R,5S)-4-acetyl-3-(1-adamantyl)methyl-1-benzyl-5-methoxycarbonylmethylaminocarbonyl-2,7-dioxo-2,3,4,5,6,7-hexahydro-1H-1,4-benzodiazonine], the values for the Ki on CCKB receptor and on CCKA were 1.58 µM and 6.31 µM, respectively.

Turning to `CC(=O)N1[C@H](CCC(C)C)C(=O)N(Cc2ccccc2)c2ccccc2C(=O)C[C@H]1C(=O)NCC(=O)O` [Example 38, (3R,5S)-4-acetyl-1-benzyl-5-carboxymethylaminocarbonyl-3-(3,3-dimethyl)propyl-2,7-dioxo-2,3,4,5,6,7-hexahydro-1H-1,4-benzodiazonine], the “pKi (Mouse cortex)” value on CCKB receptor turned out to be 5.3. At CCKA, the “pKi (Guinea pig pancreas)” value was 5.0.

Take `CC(=O)N1[C@H](CC2CCCCCC2)C(=O)N(Cc2ccccc2)c2ccccc2C(=O)C[C@H]1C(=O)NCC(=O)O` [Example 39, (3R,5S)-4-acetyl-1-benzyl-5-carboxymethylaminocarbonyl-3-cycloheptylmethyl-2,7-dioxo-2,3,4,5,6,7-hexahydro-1H-1,4-benzodiazonine]: at CCKB receptor, the “pKi (Mouse cortex)” value amounted to 5.6. The “pKi (Guinea pig pancreas)” value at CCKA is 5.0.

For the compound `CC(=O)N1[C@H](CC2CCCCC2)C(=O)N(Cc2ccccc2)c2ccccc2C(=O)C[C@H]1C(=O)NCC(=O)O` [Example 40, (3R,5S)-4-acetyl-1-benzyl-5-carboxymethylaminocarbonyl-3-cyclohexylmethyl-2,7-dioxo-2,3,4,5,6,7-hexahydro-1H-1,4-benzodiazonine], the “pKi (Mouse cortex)” value on CCKB receptor is on record as 5.4. Also, the “pKi (Guinea pig pancreas)” value on CCKA was determined as 4.7.

Turning to `CC(=O)N1[C@H](CC23CC4CC(CC(C4)C2)C3)C(=O)N(Cc2ccccc2)c2ccccc2C(=O)C[C@H]1C(=O)NCC(=O)NS(C)(=O)=O` [Example 41, (3R,5S)-4-acetyl-3-(1-adamantyl)methyl-1-benzyl-5-methanesulphonamidocarboxymethylaminocarbonyl-2,7-dioxo-2,3,4,5,6,7-hexahydro-1H-1,4-benzodiazonine], the figures for the Ki at CCKB receptor and at CCKA were 0.398 µM and 10 µM, respectively.

With `CC(C)(C)OC(=O)CN1C(=O)CN(C(=O)OCc2ccccc2)CCC(=O)c2ccccc21` [Example 42, 4-benzyloxycarbonyl-1-tert-butyloxycarbonylmethyl-2,7-dioxo-2,3 4,5,6,7-hexahydro-1H-1,4-benzodiazonine], the Ki is 20 µM on CCKB receptor and 10 µM at CCKA.

With `CC(C)(C)OC(=O)CN1C(=O)CN(C(=O)Oc2ccccc2)CCC(=O)c2ccccc21` [Example 43], the Ki at CCKB receptor is 15.8 µM; on CCKA it was 10 µM.
